Assay results reported in patent US20140057915A1, “KINASE INHIBITORS” (TOPIVERT PHARMA LIMITED, priority 2012, published 2014).

Experiments:
[1] = system: ICAM-1 expression, BEAS2B cells; assay: Poly I:C-induced ICAM-1 expression in BEAS2B cells; assay type: cell-based; conditions: Homo sapiens, BEAS-2B; read-out: Poly IC induced ICAM1 in BEAS2B, IC50
Protocol: (f) Poly I:C-Induced ICAM-1 Expression in BEAS2B Cells
Poly I:C is used in these studies as a simple, RNA virus mimic. Poly I:C-Oligofectamine mixture (1 μg/mL Poly I:C, ±2% Oligofectamine, 25 μL; Invivogen Ltd., San Diego, Calif., and Invitrogen, Carlsbad, Calif., respectively) is transfected into BEAS2B cells (human bronchial epithelial cells, ATCC). Cells are pre-incubated with final concentrations of test compounds for 2 hr and the level of ICAM1 expression on the cell surface is determined by cell-based ELISA. At a time point 18 hr after poly I:C transfection, cells are fixed with 4% formaldehyde in PBS (100 μL) and then endogenous peroxidase is quenched by the addition of washing buffer (100 μL, 0.05% Tween in PBS: PBS-Tween) containing 0.1% sodium azide and 1% hydrogen peroxide. Cells are washed with wash-buffer (3×200 μL). and after blocking the wells with 5% milk in PBS-Tween (100 μL) for 1 hr, the cells are incubated with anti-human ICAM-1 antibody (50 μL; Cell Signalling Technology, Danvers, Mass.) in 1% BSA PBS overnight at 4° C.
The cells are washed with PBS-Tween (3×200 μL) and incubated with the secondary antibody (100 μL; HRP-conjugated anti-rabbit IgG, Dako Ltd., Glostrup, Denmark). […] The ICAM-1 signal is detected by reading the absorbance at 450 nm against a reference wavelength of 655 nm using a spectrophotometer. The cells are then washed with PBS-Tween (3×200 μL) and total cell numbers in each well are determined by reading absorbance at 595 nm after Crystal Violet staining (50 μL of a 2% solution in PBS) and elution by 1% SDS solution (100 μL) in distilled water. The measured OD 450-655 readings are corrected for cell number by dividing with the OD595 reading in each well. The inhibition of ICAM-1 expression is calculated at each concentration of test compound by comparison with vehicle control.

cSrc = cSrc (Homo sapiens, UniProt P12931); assay: c-Src enzyme inhibition (FRET); assay type: biochemical; conditions: Table 4a1
Chain of cSrc (P12931 whole entry): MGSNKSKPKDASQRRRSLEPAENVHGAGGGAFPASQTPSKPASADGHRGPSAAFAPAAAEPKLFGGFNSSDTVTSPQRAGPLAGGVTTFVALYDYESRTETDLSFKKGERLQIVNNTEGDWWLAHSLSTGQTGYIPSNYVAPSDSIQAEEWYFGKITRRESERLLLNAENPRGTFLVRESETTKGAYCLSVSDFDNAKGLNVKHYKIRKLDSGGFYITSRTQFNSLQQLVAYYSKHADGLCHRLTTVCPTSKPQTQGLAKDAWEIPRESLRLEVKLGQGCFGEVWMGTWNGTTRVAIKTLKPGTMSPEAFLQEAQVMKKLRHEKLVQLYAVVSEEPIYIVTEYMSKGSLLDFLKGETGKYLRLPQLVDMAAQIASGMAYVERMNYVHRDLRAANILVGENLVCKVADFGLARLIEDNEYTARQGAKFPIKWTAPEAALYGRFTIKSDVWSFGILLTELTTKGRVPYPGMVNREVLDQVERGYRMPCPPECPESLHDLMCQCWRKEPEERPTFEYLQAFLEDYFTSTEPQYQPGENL
Protocol: (§1) The enzyme inhibitory activities of compounds disclosed herein are determined by FRET using synthetic peptides labelled with both donor and acceptor fluorophores (Z-LYTE, Invitrogen Ltd., Paisley, UK).
(§2) The relevant enzyme (3000 ng/mL or 2000 ng/mL respectively, 2.5 μL) is incubated with the test compound (either 4 μg/mL, 0.4 μg/mL, 0.04 μg/mL, or 0.004 μg/mL, 2.5 μL each) for 2 hr at RT. The FRET peptides (8 μM, 2.5 μL), and appropriate ATP solutions (2.5 μL, 800 μM for c-Src, and 60 μM ATP for Syk) are then added to the enzymes/compound mixtures and incubated for 1 hr. Development reagent (protease, 5 μL) is added for 1 hr prior to detection in a fluorescence microplate reader (Varioskan® Flash, ThermoFisher Scientific).
(§3) In all cases, the site-specific protease cleaves non-phosphorylated peptide only and eliminates the FRET signal. Phosphorylation levels of each reaction are calculated using the ratio of coumarin emission (donor) over fluorescein emission (acceptor), for which high ratios indicate high phosphorylation and low ratios indicate low phosphorylation levels.

d-U937 cells = assay: Cell viability: MTT assay; assay type: cell-based, human; conditions: 1 μg/mL
Protocol: (l) The Effect of Test Compounds on Cell Viability: MTT Assay
Differentiated U937 cells are pre-incubated with each test compound (final concentration 1 μg/mL or 10 μg/mL in 200 μL media indicated below) under two protocols: the first for 4 hr in 5% FCS RPMI1640 media and the second in 10% FCS RPMI1640 media for 24 h. The supernatant is replaced with new media (200 μL) and MTT stock solution (10 μL, 5 mg/mL) is added to each well. After incubation for 1 hr the media are removed, DMSO (200 μL) is added to each well and the plates are shaken lightly for 1 hr prior to reading the absorbance at 550 nm. The percentage loss of cell viability is calculated for each well relative to vehicle (0.5% DMSO) treatment. Consequently an apparent increase in cell viability for drug treatment relative to vehicle is tabulated as a negative percentage.

[2] = system: TNFα release, d-U937 cells; assay: LPS-induced TNFα release in d-U937 cells; assay type: cell-based; conditions: Homo sapiens, dU937; relative to 10 μg/mL BIRB796; Table 4c1; read-out: LPS Induced Release of Cytokine in d-U937 Cells, TNFα REC50
Protocol: (§4) (a) LPS-Induced TNFα/IL-8 Release in d-U937Cells
U937 cells, a human monocytic cell line, are differentiated into macrophage-type cells by incubation with PMA (100 ng/mL) for 48 to 72 hr. Cells are pre-incubated with final concentrations of test compound for 2 hr and are then stimulated with LPS (0.1 μg/mL; from E. Coli: 0111:B4, Sigma) for 4 hr. The supernatant is collected for determination of TNFα and IL-8 concentrations by sandwich ELISA (Duo-set, R&D systems). […] The relative 50% effective concentration (REC50) is determined from the resultant concentration-response curve. The inhibition of IL-8 production is calculated at each concentration of test compound by comparison with vehicle control.

GSK3α = GSK3α (Homo sapiens, UniProt P49840); assay: GSK 3α enzyme inhibition (FRET), Method 1; assay type: biochemical; conditions: Table 4a1
Chain of GSK3α (P49840 whole entry): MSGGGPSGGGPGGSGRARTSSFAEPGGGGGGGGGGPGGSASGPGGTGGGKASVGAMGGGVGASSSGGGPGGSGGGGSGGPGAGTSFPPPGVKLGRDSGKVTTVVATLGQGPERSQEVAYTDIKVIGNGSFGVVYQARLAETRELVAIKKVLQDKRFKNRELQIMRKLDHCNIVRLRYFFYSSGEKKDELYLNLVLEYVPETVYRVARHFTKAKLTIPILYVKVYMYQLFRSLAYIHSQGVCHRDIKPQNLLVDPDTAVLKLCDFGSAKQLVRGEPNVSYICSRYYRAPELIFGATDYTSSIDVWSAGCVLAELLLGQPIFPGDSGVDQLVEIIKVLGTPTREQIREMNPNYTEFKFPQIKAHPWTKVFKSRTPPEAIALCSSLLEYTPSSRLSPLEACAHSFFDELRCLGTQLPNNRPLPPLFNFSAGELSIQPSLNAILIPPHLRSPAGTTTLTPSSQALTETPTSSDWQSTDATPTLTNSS
Protocol: as §1
The following two assay variants are used for determination of GSK 3a inhibition.
The inhibitory activities of compounds of the invention against the GSK 3a enzyme isoform (Invitrogen), are evaluated by determining the level of activation/phosphorylation of the target peptide. The GSK3-α protein (500 ng/mL, 2.5 μL) is mixed with the test compound (2.5 μL at either 4 μg/mL, 0.4 μg/mL, 0.04 μg/mL, or 0.004 μg/mL) for 2 hr at RT. The FRET peptide (8 μM, 2.5 μL), which is a phosphorylation target for GSK3α, and ATP (40 μM, 2.5 μL) are then added to the enzyme/compound mixture and the resulting mixture incubated for 1 hr. Development reagent (protease, 5 μL) is added for 1 hr prior to detection in a fluorescence microplate reader (Varioskan® Flash, ThermoFisher Scientific).
as §3

Syk = Syk (Homo sapiens, UniProt P43405); assay: Syk enzyme inhibition (FRET); assay type: biochemical; conditions: Table 4a1
Protocol: as §1, §2, §3

[3] = system: IL-8 release, d-U937 cells; assay: LPS-induced IL-8 release in d-U937 cells; assay type: cell-based; conditions: Homo sapiens, dU937; Table 4c1; read-out: LPS Induced Release of Cytokine in d-U937 Cells, IL-8 IC50
Protocol: as §4
U937 cells, a human monocytic cell line, are differentiated into macrophage-type cells by incubation with PMA (100 ng/mL) for 48 to 72 hr. Cells are pre-incubated with final concentrations of test compound for 2 hr and are then stimulated with LPS (0.1 μg/mL; from E. Coli: 0111:B4, Sigma) for 4 hr. […] The relative 50% effective concentration (REC50) is determined from the resultant concentration-response curve.

SMILES | IC50 [1] [nM] | IC50 (cSrc) [nM] | Cell viability at time point in d-U937 cells, 4 h (d-U937 cells) | Cell viability at time point in d-U937 cells, 24 h (d-U937 cells) | EC50 [2] [nM] | IC50 (GSK3α) [nM] | IC50 (Syk) [nM] | IC50 [3] [nM]
COc1ccc(-n2nc(C(C)C)cc2NC(=O)Nc2ccc(Oc3ccnc(Nc4cc(OC)cc(C(=O)NCCN(C)C)c4)n3)c3ccccc23)cc1 [Example 6] | 1.2 | 2 | −ve (−ve and +ve indicate that the value is below and above respectively, the no significant effect threshold, defined as 30% inhibition at 1 μg/mL at the time point indicated) | −ve (−ve and +ve indicate that the value is below and above respectively, the no significant effect threshold, defined as 30% inhibition at 1 μg/mL at the time point indicated) | 0.2 | 634 | 5 | 1.9
COc1ccc(-n2nc(C3CCOC3)cc2NC(=O)Nc2ccc(Oc3ccnc(Nc4cc(OC)cc(C(=O)NCCN5CCOCC5)c4)n3)c3ccccc23)cc1 (stereo not drawn) [Example 59, 3-methoxy-5-((4-((4-(3-(1-(4-methoxyphenyl)-3-(tetrahydrofuran-3-yl)-1H-pyrazol-5-yl)ureido)naphthalen-1-yl)oxy)pyrimidin-2-yl)amino)-N-(2-morpholinoethyl)benzamide] | 39.7 | < 1 | −ve (−ve and +ve indicate that the value is below and above respectively, the no significant effect threshold, defined as 30% inhibition at 1 μg/mL at the time point indicated) | −ve (−ve and +ve indicate that the value is below and above respectively, the no significant effect threshold, defined as 30% inhibition at 1 μg/mL at the time point indicated) | 2 | 1190 | 12 | 6.8
COc1cc(Nc2nccc(Oc3ccc(NC(=O)Nc4cc(C(C)C)nn4-c4ccc(OC)nc4)c4ccccc34)n2)cc(C(=O)NCCN2CCOCC2)c1 [Example 10, 3-((4-((4-(3-(3-Isopropyl-1-(6-methoxypyridin-3-yl)-1H-pyrazol-5-yl)ureido)naphthalen-1-yl)oxy)pyrimidin-2-yl)amino)-5-methoxy-N-(2-morpholinoethyl)benzamide] | 7.3 | 2 | −ve (−ve and +ve indicate that the value is below and above respectively, the no significant effect threshold, defined as 30% inhibition at 1 μg/mL at the time point indicated) | −ve (−ve and +ve indicate that the value is below and above respectively, the no significant effect threshold, defined as 30% inhibition at 1 μg/mL at the time point indicated) | 1.3 | > 12900 | 4 | 1.8
COc1ccc(-n2nc(C3CCCO3)cc2NC(=O)Nc2ccc(Oc3ccnc(Nc4cc(OC)cc(C(=O)NCCN5CCOCC5)c4)n3)c3ccccc23)cc1 (stereo not drawn) [Example 58, 3-methoxy-5-((4-((4-(3-(1-(4-methoxyphenyl)-3-(tetrahydrofuran-2-yl)-1H-pyrazol-5-yl)ureido)naphthalen-1-yl)oxy)pyrimidin-2-yl)amino)-N-(2-morpholinoethyl)benzamide] | 2.1 | < 1 | −ve (−ve and +ve indicate that the value is below and above respectively, the no significant effect threshold, defined as 30% inhibition at 1 μg/mL at the time point indicated) | −ve (−ve and +ve indicate that the value is below and above respectively, the no significant effect threshold, defined as 30% inhibition at 1 μg/mL at the time point indicated) | 11.7 | 8470 | 296 | 46.3
COc1cc(Nc2nccc(Oc3ccc(NC(=O)Nc4cc(C(F)(F)F)nn4-c4ccc(C)cc4)c4ccccc34)n2)cc(C(=O)NCCN2CCOCC2)c1 [Example 48, 3-methoxy-N-(2-morpholinoethyl)-5-((4-((4-(3-(1-(p-tolyl)-3-(trifluoromethyl)-1H-pyrazol-5-yl)ureido)naphthalen-1-yl)oxy)pyrimidin-2-yl)amino)benzamide] | 32.3 | 5 | −ve (−ve and +ve indicate that the value is below and above respectively, the no significant effect threshold, defined as 30% inhibition at 1 μg/mL at the time point indicated) | −ve (−ve and +ve indicate that the value is below and above respectively, the no significant effect threshold, defined as 30% inhibition at 1 μg/mL at the time point indicated) | 3.5 | > 12800 | 78 | 20.6
COc1cc(Nc2nccc(Oc3ccc(NC(=O)Nc4cc(C(C)(C)C)nn4-c4ccc(C)cc4)c4ccccc34)n2)cc(C(=O)NCCN(C)C)c1 [Example 43, 3-((4-((4-(3-(3-(tert-butyl)-1-(p-tolyl)-1H-pyrazol-5-yl)ureido)naphthalen-1-yl)oxy)pyrimidin-2-yl)amino)-N-(2-(dimethylamino)ethyl)-5-methoxybenzamide] | 0.4 | 2 | −ve (−ve and +ve indicate that the value is below and above respectively, the no significant effect threshold, defined as 30% inhibition at 1 μg/mL at the time point indicated) | −ve (−ve and +ve indicate that the value is below and above respectively, the no significant effect threshold, defined as 30% inhibition at 1 μg/mL at the time point indicated) | 0.2 | 197 | 7 | 0.6
